Test results from article PMC11596972, “Synthesis and Antimicrobial Activity of 3-Alkylidene-2-Indolone Derivatives” (Molecules, 2024).
≈ marks a conversion by molar mass, not a printed value. Where two headings read alike, the source gives them in different places.

Tests used:
[1] = tested on: E. coli ATCC 25922; test: MIC, double dilution method, E. coli ATCC 25922; assay type: cell-based; settings: Escherichia coli, ATCC25922; E. coli ATCC 25922, Gram-negative; 24 h culture; read-out: MIC
[2] = tested on: C. albicans CMCC 98001; test: MIC, double dilution method, C. albicans CMCC 98001; assay type: cell-based, Candida albicans; settings: for MIC: C. albicans CMCC 98001, fungus, 24 h culture; for antifungal activity (class in words): C. albicans CMCC 98001
[3] = tested on: E. coli 1924; test: MIC, double dilution method, E. coli 1924; assay type: cell-based, Escherichia coli; settings: Escherichia coli; E. coli 1924, Gram-negative; 24 h culture; read-out: MIC
[4] = tested on: MRSA ATCC 43300; test: MIC, double dilution method, MRSA ATCC 43300; assay type: cell-based, Methicillin-resistant Staphylococcus aureus; settings: Staphylococcus aureus, 24 h, MRSA ATCC 43300, Gram-positive; 24 h culture; read-out: MIC
[5] = tested on: S. aureus ATCC 6538; test: MIC, double dilution method, S. aureus ATCC 6538; assay type: cell-based; settings: Staphylococcus aureus, ATCC6538, 24 h, S. aureus ATCC 6538, Gram-positive; 24 h culture; read-out: MIC
[6] = tested on: S. aureus 4220; test: MIC, double dilution method, S. aureus 4220; assay type: cell-based; settings: Staphylococcus aureus, 4220, 24 h, S. aureus 4220, Gram-positive; 24 h culture; read-out: MIC
[7] = tested on: P. aeruginosa CMCC 10211; test: MIC, double dilution method, P. aeruginosa CMCC 10211; assay type: cell-based; settings: Pseudomonas aeruginosa, CMCC10211; P. aeruginosa CMCC 10211, Gram-negative; 24 h culture; read-out: MIC
[8] = Candida albicans, CMCC98001, 24 h, read-out: MIC

SMILES: C/C(O)=C1/C(=O)N(C)c2c(C)cccc21 [Compound 5b, (Z)-3-(1-hydroxyethylidene)-1,7-dimethylindolin-2-one]
- MIC [1]: 64 µg/mL (≈ 315 µM)
- MIC [2, 8]: 32 µg/mL (≈ 157 µM)
- MIC [3]: 32 µg/mL (≈ 157 µM)
- MIC [4]: > 64 µg/mL
- MIC [5]: 64 µg/mL (≈ 315 µM)
- MIC [6]: > 64 µg/mL
- MIC [7]: 64 µg/mL (≈ 315 µM)

SMILES: C/C(O)=C1/C(=O)N(C)c2cc(C)ccc21 [Compound 5c, (Z)-3-(1-hydroxyethylidene)-1,6-dimethylindolin-2-one]
- MIC [1]: 64 µg/mL (≈ 315 µM)
- MIC [2, 8]: 16 µg/mL (≈ 78.7 µM)
- MIC [3]: 16 µg/mL (≈ 78.7 µM)
- MIC [4]: > 64 µg/mL
- MIC [5]: 64 µg/mL (≈ 315 µM)
- MIC [6]: > 64 µg/mL
- MIC [7]: 64 µg/mL (≈ 315 µM)

SMILES: C/C(O)=C1/C(=O)N(C)c2ccc(C)cc21 [Compound 5d, (Z)-3-(1-hydroxyethylidene)-1,5-dimethylindolin-2-one]
- MIC [1]: > 64 µg/mL
- antifungal activity (class in words) [2]: moderate antifungal activity
- MIC [3]: 2 µg/mL (≈ 9.84 µM)
- MIC [4]: > 64 µg/mL
- MIC [5]: 64 µg/mL (≈ 315 µM)
- MIC [7]: 64 µg/mL (≈ 315 µM)

SMILES: C/C(O)=C1/C(=O)N(C)c2c(F)cccc21 [Compound 5e, (Z)-7-fluoro-3-(1-hydroxyethylidene)-1-methylindolin-2-one]
- MIC [1]: > 64 µg/mL
- MIC [2, 8]: 32 µg/mL (≈ 154 µM)
- MIC [3]: 16 µg/mL (≈ 77.2 µM)
- MIC [4]: 64 µg/mL (≈ 309 µM)
- MIC [5]: 64 µg/mL (≈ 309 µM)
- MIC [7]: > 64 µg/mL

SMILES: C/C(O)=C1/C(=O)N(C)c2cc(F)ccc21 [Compound 5f, (Z)-6-fluoro-3-(1-hydroxyethylidene)-1-methylindolin-2-one]
- MIC [1]: > 64 µg/mL
- MIC [2, 8]: 64 µg/mL (≈ 309 µM)
- MIC [3]: 32 µg/mL (≈ 154 µM)
- MIC [4]: > 64 µg/mL
- MIC [5]: > 64 µg/mL
- MIC [6]: > 64 µg/mL
- MIC [7]: > 64 µg/mL

SMILES: C/C(O)=C1/C(=O)N(C)c2ccc(F)cc21 [Compound 5g, (Z)-5-fluoro-3-(1-hydroxyethylidene)-1-methylindolin-2-one]
- MIC [1]: > 64 µg/mL
- MIC [2, 8]: 32 µg/mL (≈ 154 µM)
- MIC [3]: 64 µg/mL (≈ 309 µM)
- MIC [4]: > 64 µg/mL
- MIC [5]: 64 µg/mL (≈ 309 µM)
- MIC [6]: > 64 µg/mL
- MIC [7]: > 64 µg/mL

SMILES: C/C(O)=C1/C(=O)N(C)c2cccc(F)c21 [Compound 5h, (Z)-4-fluoro-3-(1-hydroxyethylidene)-1-methylindolin-2-one]
- MIC [1]: > 64 µg/mL
- antifungal activity (class in words) [2]: moderate antifungal activity
- MIC [2]: 16 µg/mL (≈ 77.2 µM)
- MIC [2, 8]: 8 to 16 µg/mL (≈ 38.6 to 77.2 µM)
- MIC [3]: 32 µg/mL (≈ 154 µM)
- MIC [4]: > 64 µg/mL
- MIC [5]: > 64 µg/mL
- MIC [6]: 64 µg/mL (≈ 309 µM)
- MIC [7]: > 64 µg/mL

SMILES: C/C(O)=C1/C(=O)N(C)c2c(Cl)cccc21 [Compound 5i, (Z)-7-chloro-3-(1-hydroxyethylidene)-1-methylindolin-2-one]
- MIC [1]: > 64 µg/mL
- MIC [2, 8]: 64 µg/mL (≈ 286 µM)
- MIC [3]: 8 µg/mL (≈ 35.8 µM)
- MIC [4]: 64 µg/mL (≈ 286 µM)
- MIC [5]: 32 µg/mL (≈ 143 µM)
- MIC [6]: 32 µg/mL (≈ 143 µM)
- MIC [7]: 64 µg/mL (≈ 286 µM)

SMILES: C/C(O)=C1/C(=O)N(C)c2cc(Cl)ccc21 [Compound 5j, (Z)-6-chloro-3-(1-hydroxyethylidene)-1-methylindolin-2-one]
- MIC [1]: > 64 µg/mL
- MIC [2, 8]: 64 µg/mL (≈ 286 µM)
- MIC [3]: 8 µg/mL (≈ 35.8 µM)
- MIC [4]: > 64 µg/mL
- MIC [6]: 32 µg/mL (≈ 143 µM)
- MIC [7]: > 64 µg/mL

SMILES: C/C(O)=C1/C(=O)N(C)c2ccc(Cl)cc21 [Compound 5k, (Z)-5-chloro-3-(1-hydroxyethylidene)-1-methylindolin-2-one]
- MIC [1]: > 64 µg/mL
- MIC [2, 8]: 32 µg/mL (≈ 143 µM)
- MIC [3]: 1 µg/mL (≈ 4.47 µM)
- MIC [4]: > 64 µg/mL
- MIC [5]: 16 µg/mL (≈ 71.5 µM)
- MIC [7]: > 64 µg/mL

SMILES: C/C(O)=C1/C(=O)N(C)c2c(Br)cccc21 [Compound 5l, (Z)-7-bromo-3-(1-hydroxyethylidene)-1-methylindolin-2-one]
- MIC [1]: > 64 µg/mL
- MIC [2, 8]: 64 µg/mL (≈ 239 µM)
- MIC [3]: 8 µg/mL (≈ 29.8 µM)
- MIC [4]: 64 µg/mL (≈ 239 µM)
- MIC [5]: 64 µg/mL (≈ 239 µM)
- MIC [6]: 32 µg/mL (≈ 119 µM)
- MIC [7]: > 64 µg/mL

SMILES: C/C(O)=C1/C(=O)N(C)c2cc(Br)ccc21 [Compound 5m, (Z)-6-bromo-3-(1-hydroxyethylidene)-1-methylindolin-2-one]
- MIC [1]: > 64 µg/mL
- MIC [2, 8]: 64 µg/mL (≈ 239 µM)
- MIC [3]: 16 µg/mL (≈ 59.7 µM)
- MIC [4]: 64 µg/mL (≈ 239 µM)
- MIC [5]: 32 µg/mL (≈ 119 µM)
- MIC [6]: > 64 µg/mL
- MIC [7]: > 64 µg/mL

SMILES: C/C(O)=C1/C(=O)N(C)c2ccc(Br)cc21 [Compound 5n, (Z)-5-bromo-3-(1-hydroxyethylidene)-1-methylindolin-2-one]
- MIC [1]: > 64 µg/mL
- MIC [2, 8]: 64 µg/mL (≈ 239 µM)
- MIC [3]: 8 µg/mL (≈ 29.8 µM)
- MIC [4]: > 64 µg/mL
- MIC [5]: 32 µg/mL (≈ 119 µM)
- MIC [6]: 32 µg/mL (≈ 119 µM)
- MIC [7]: > 64 µg/mL

SMILES: COc1cccc2c1N(C)C(=O)/C2=C(/C)O [Compound 5o, (Z)-3-(1-hydroxyethylidene)-7-methoxy-1-methylindolin-2-one]
- MIC [1]: > 64 µg/mL
- MIC [2, 8]: 32 µg/mL (≈ 146 µM)
- MIC [3]: 16 µg/mL (≈ 73 µM)
- MIC [4]: 64 µg/mL (≈ 292 µM)
- MIC [5]: > 64 µg/mL
- MIC [6]: > 64 µg/mL
- MIC [7]: 64 µg/mL (≈ 292 µM)

SMILES: C/C(O)=C1/C(=O)N(C)c2ccc(C#N)cc21 [Compound 5p, (Z)-3-(1-hydroxyethylidene)-1-methyl-2-oxoindoline-5-carbonitrile]
- MIC [1]: > 64 µg/mL
- MIC [2, 8]: > 64 µg/mL
- MIC [3]: > 64 µg/mL
- MIC [4]: > 64 µg/mL
- MIC [5]: 64 µg/mL (≈ 299 µM)
- MIC [6]: 64 µg/mL (≈ 299 µM)
- MIC [7]: > 64 µg/mL

SMILES: C/C(O)=C1/C(=O)N(C)c2ccc(C(F)(F)F)cc21 [Compound 5q, (Z)-3-(1-hydroxyethylidene)-1-methyl-5-(trifluoromethyl)indolin-2-one]
- MIC [1]: > 64 µg/mL
- MIC [2, 8]: > 64 µg/mL
- MIC [3]: 16 µg/mL (≈ 62.2 µM)
- MIC [4]: > 64 µg/mL
- MIC [6]: 64 µg/mL (≈ 249 µM)
- MIC [7]: > 64 µg/mL

SMILES: C/C(O)=C1/C(=O)N(C)c2cc(C(F)(F)F)ccc21 [Compound 5r, (Z)-3-(1-hydroxyethylidene)-1-methyl-6-(trifluoromethyl)indolin-2-one]
- MIC [1]: > 64 µg/mL
- antifungal activity (class in words) [2]: moderate antifungal activity
- MIC [2]: 16 µg/mL (≈ 62.2 µM)
- MIC [2, 8]: 8 to 16 µg/mL (≈ 31.1 to 62.2 µM)
- MIC [3]: > 64 µg/mL
- MIC [6]: 64 µg/mL (≈ 249 µM)
- MIC [7]: > 64 µg/mL

SMILES: COc1ccc2c(c1)/C(=C(\C)O)C(=O)N2Cc1ccccc1 [Compound 5s, (Z)-1-benzyl-3-(1-hydroxyethylidene)-5-methoxyindolin-2-one]
- MIC [1]: > 64 µg/mL
- MIC [2, 8]: > 64 µg/mL
- MIC [3]: 16 µg/mL (≈ 54.2 µM)
- MIC [4]: 64 µg/mL (≈ 217 µM)
- MIC [5]: 64 µg/mL (≈ 217 µM)
- MIC [6]: 32 µg/mL (≈ 108 µM)
- MIC [7]: > 64 µg/mL

SMILES: CCN1C(=O)/C(=C(/C)O)c2ccccc21 [Compound 5t, (Z)-1-ethyl-3-(1-hydroxyethylidene) indolin-2-one]
- MIC [1]: > 64 µg/mL
- MIC [2, 8]: 32 µg/mL (≈ 157 µM)
- MIC [3]: 32 µg/mL (≈ 157 µM)
- MIC [4]: > 64 µg/mL
- MIC [5]: 64 µg/mL (≈ 315 µM)
- MIC [6]: > 64 µg/mL
- MIC [7]: > 64 µg/mL

SMILES: C/C(O)=C1/C(=O)N(Cc2ccccc2)c2ccccc21 [Compound 5u, (Z)-1-benzyl-3-(1-hydroxyethylidene)indolin-2-one]
- MIC [1]: 64 µg/mL (≈ 241 µM)
- MIC [2, 8]: 32 µg/mL (≈ 121 µM)
- MIC [3]: 2 µg/mL (≈ 7.54 µM)
- MIC [4]: 64 µg/mL (≈ 241 µM)
- MIC [7]: > 64 µg/mL

SMILES: CCCN1C(=O)/C(=C(/C)O)c2ccccc21 [Compound 5v, (Z)-3-(1-hydroxyethylidene)-1-propylindolin-2-one]
- MIC [1]: > 64 µg/mL
- MIC [2, 8]: 32 µg/mL (≈ 147 µM)
- MIC [3]: 16 µg/mL (≈ 73.6 µM)
- MIC [5]: 64 µg/mL (≈ 295 µM)
- MIC [6]: 64 µg/mL (≈ 295 µM)
- MIC [7]: > 64 µg/mL

SMILES: COc1ccc(CN2C(=O)/C(=C(/C)O)c3ccccc32)cc1 [Compound 5w, (Z)-3-(1-hydroxyethylidene)-1-(4-methoxybenzyl)indolin-2-one]
- MIC [1]: > 64 µg/mL
- MIC [2, 8]: 32 µg/mL (≈ 108 µM)
- MIC [3]: 8 µg/mL (≈ 27.1 µM)
- MIC [4]: 64 µg/mL (≈ 217 µM)
- MIC [5]: 64 µg/mL (≈ 217 µM)
- MIC [6]: > 64 µg/mL
- MIC [7]: > 64 µg/mL
